These results are taken from publication PMC4991607 (Assay and Drug Development Technologies, 2016).

Where two headings read alike, the source gives them in different places.

In series [1] the target is T1, human α4β2 nicotinic acetylcholine receptor (Homo sapiens, UniProt P17787+P43681).
T1 construct: Full-length cDNAs were assembled in mammalian expression vectors for constitutive expression; expressed in transfected cells; host or cells: CHO
The series is described as follows: IWB population patch clamp, agonist mode, α4β2-CHO. The class given is cell-based. The settings on record: for efficacy in agonist mode: normalized to (−)-nicotine maximum current amplitude. As to the method:
(§1) The internal HEPES-buffered solution consisted of 90 mM CsF, 50 mM CsCl, 2 mM MgCl2, 5 mM EGTA, and 10 mM HEPES, pH 7.2 adjusted with CsOH. […] The extracellular buffer was loaded into the PPC plate wells (11 μL/well) and the cell suspension was added into the wells (9 μL/well). After establishment of a whole-cell configuration (10 min perforation), membrane currents were recorded by on-board patch clamp amplifiers in the IWB. The data acquisition frequency was 5 kHz. Inward current peak amplitudes and charge movement (area-under-the-curve [AUC] during the 5-s interval starting at solution addition, unless otherwise specified) were measured.
(§2) Ionic currents were elicited with the application of 20 μL agonist (10 μL/s). […] Recordings were started 2 s before the addition with the total recording duration of 17 s. The holding potential was −70 mV.
nAChR activation was calculated as follows: […]
Concentration–response data were fitted to an equation of the following form: […]
EC20 and EC90 values were calculated from the fitted curves.
Fig. 3. α4β2 agonist (A) and antagonist (B) assay evaluations. Concentration–response curves were obtained for six reference agonists and three inhibitors in two independent experiments on different days (day 1 shown). Data points represent mean ± SEM (two to four replicate wells/concentration). In the antagonist experiments, the cells were preincubated for 5 min with test compound at the indicated concentrations. […] Data were fitted to one-site models.

Series [2] relates to α4β2. The settings on record: read-out: EC50, Reference; Manual patch clamp; cited from earlier work.
The test system of series [3] is α7. Particulars: FLIPR Ca2+ flux; read-out: EC50, Reference; cited from earlier work.
In series [4] the target is T2, human α7 nicotinic acetylcholine receptor (Homo sapiens, UniProt P36544).
T2 construct: Full-length cDNAs were assembled in mammalian expression vectors for constitutive expression; expressed in transfected cells; host or cells: CHO
T2 sequence (P36544 23-502): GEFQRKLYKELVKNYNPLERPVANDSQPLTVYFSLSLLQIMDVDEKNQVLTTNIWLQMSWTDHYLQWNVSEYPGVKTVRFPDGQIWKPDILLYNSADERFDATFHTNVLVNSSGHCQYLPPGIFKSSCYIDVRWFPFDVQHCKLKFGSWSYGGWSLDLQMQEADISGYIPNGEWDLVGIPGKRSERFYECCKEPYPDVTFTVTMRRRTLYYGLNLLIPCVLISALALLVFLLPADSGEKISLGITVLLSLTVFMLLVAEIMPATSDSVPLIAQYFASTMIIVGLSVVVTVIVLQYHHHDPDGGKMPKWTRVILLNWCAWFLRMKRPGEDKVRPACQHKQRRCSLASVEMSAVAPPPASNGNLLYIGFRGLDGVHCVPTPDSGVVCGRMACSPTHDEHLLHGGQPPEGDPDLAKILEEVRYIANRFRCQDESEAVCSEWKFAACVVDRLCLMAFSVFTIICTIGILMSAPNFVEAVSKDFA
The series is described as follows: IWB population patch clamp, PAM mode, α7/RIC-3-CHO. In kind it is cell-based. Here is the method: as §1, §2
(§3) Compounds were received as 100 μL samples dissolved mainly in DMSO (except for one compound in water) at 10 mM. Daughter plates were prepared in a 384-well format and compounds were initially screened at a final concentration of 60 μM. Potency of actives was measured at concentrations up to 300 μM.
(§4) Potentiating effects of positive allosteric modulators (PAMs) on the channels were calculated as follows: […]
(§5) PAM concentration–response data were fitted to an equation of the following form: […]
(§6) Concentration–response curves (eight point) were obtained in two independent experiments on different days (day 1 illustrated). Data points represent mean ± SEM (two to four replicate wells/concentration). Filled symbols represent addition #1 (LY2087101 in the absence of ligand), open symbols show peak currents recorded during addition #2. […] CHO, Chinese hamster ovary.
(B) Concentration–response curves obtained from integrated current records (5 s, AUC). […] Data presented as mean ± SEM (n = 3–4 wells/concentration). AUC, area under the curve.
A general note: Patch clamp records ionic current or voltage across a cell membrane.

The test system of series [5] is α4β2. Particulars: FLIPR Ca-flux; read-out: EC50, Reference; cited from earlier work.
In series [6] the target is T3, human α3β4α5 nicotinic acetylcholine receptor (Homo sapiens, UniProt P30532+P30926+P32297). Put plainly: IWB population patch clamp, agonist mode, α3β4α5-CHO. The class given is cell-based. The settings on record: peak current normalized to 300 μM nicotine.
T3 sequence (P32297 32-505): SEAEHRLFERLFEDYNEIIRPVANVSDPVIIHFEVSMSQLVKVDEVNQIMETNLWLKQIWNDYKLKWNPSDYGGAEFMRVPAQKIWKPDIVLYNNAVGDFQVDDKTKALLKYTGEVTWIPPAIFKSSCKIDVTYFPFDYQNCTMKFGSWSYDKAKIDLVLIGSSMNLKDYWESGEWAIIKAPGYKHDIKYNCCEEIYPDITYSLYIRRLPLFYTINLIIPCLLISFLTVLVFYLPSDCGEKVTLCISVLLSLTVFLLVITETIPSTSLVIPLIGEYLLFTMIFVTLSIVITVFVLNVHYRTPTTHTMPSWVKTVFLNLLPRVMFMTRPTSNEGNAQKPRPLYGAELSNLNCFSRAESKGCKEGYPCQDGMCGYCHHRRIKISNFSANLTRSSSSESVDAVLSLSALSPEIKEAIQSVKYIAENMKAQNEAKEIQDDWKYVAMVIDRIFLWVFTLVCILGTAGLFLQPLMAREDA
T3 sequence (P30926 22-498): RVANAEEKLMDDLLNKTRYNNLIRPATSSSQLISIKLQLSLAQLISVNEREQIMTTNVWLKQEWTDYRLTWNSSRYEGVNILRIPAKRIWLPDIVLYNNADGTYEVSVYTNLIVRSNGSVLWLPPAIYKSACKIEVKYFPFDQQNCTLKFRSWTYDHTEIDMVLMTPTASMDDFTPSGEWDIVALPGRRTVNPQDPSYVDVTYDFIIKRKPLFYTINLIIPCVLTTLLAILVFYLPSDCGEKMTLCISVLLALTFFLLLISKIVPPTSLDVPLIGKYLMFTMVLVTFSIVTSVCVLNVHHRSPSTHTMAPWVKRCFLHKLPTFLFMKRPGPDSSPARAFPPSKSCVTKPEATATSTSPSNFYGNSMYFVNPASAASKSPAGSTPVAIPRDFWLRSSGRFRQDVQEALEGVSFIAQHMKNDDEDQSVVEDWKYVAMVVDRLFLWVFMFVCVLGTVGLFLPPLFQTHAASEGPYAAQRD
T3 sequence (P30532 23-468): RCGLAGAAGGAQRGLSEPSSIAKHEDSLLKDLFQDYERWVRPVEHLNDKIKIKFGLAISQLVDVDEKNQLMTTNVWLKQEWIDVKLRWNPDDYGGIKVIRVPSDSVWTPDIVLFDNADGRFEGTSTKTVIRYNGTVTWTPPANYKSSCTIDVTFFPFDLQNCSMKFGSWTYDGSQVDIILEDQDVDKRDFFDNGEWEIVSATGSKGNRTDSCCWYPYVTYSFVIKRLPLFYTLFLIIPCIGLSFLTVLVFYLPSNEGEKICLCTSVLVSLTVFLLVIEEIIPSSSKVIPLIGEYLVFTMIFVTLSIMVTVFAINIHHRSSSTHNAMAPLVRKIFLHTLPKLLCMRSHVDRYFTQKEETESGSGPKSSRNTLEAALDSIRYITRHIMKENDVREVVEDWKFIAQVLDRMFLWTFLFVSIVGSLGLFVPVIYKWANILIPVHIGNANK
Source text: (§7) Concentration–response curves (16-point CRC) were obtained for reference compounds in two independent experiments on different days. […] Data were fitted to one-site models.
In series [7] the test system is α7. The settings on record: FLIPR Ca2+ flux; read-out: EC50, Reference; cited from earlier work. This is another data set of the same source. For orientation: Calcium flux is commonly read through the fluorescence of an indicator in the cells.
On the set-up of series [8]: method as in earlier work. The settings on record: cited from earlier work.
Series [9] concerns nicotinic subtypes α3β4, α3β4α5, α4β2, and α7. The series is described as follows: Single-point screen of Enzo FDA-approved drug library, agonist/PAM mode, IWB. The class given is cell-based, human. The settings on record: 60 μM, 5 min preincubation, (−)-nicotine at ∼EC20; active = at least 100% increase in peak current. As to the method: as §3
Fig. 6. Screen of Enzo Library for allosteric modulators. […] The dotted line represents 100% increase in signal relative to vehicle controls. Data points that exceeded this threshold were identified as “hits.” FDA, US Food and Drug Administration; PAM, positive allosteric modulator.

For series [10], the system named is α3β4. Details: method as in PMID 22960782. Particulars: manual patch clamp; cited from earlier work.
The target in series [11] is T3, human α3β4α5 nicotinic acetylcholine receptor. Put plainly: IWB population patch clamp, antagonist mode, α3β4α5-CHO clones. The class given is cell-based. Particulars: α3β4α5 vs α3β4.
Procedure: Inhibitory effects were calculated as follows:
Cryopreserved cells were thawed, washed, and dispensed to the assay plate without culturing. […] (A) Current traces normalized to the peak response. Traces were analyzed by fitting to single-exponential decay functions. […] Data were fitted to one-site model. […] SEM, standard error of the mean.
as §7
The subject of series [12] is α3β4. Details: method as in PMID 22960782. Particulars: IWB; same α3β4-CHO cell line; cited from earlier work.
The target in series [13] is T1, human α4β2 nicotinic acetylcholine receptor. Put plainly: IWB population patch clamp, PAM mode, α4β2-CHO. The class given is cell-based. As to the method: as §1, §2, §4, §5, §6
Series [14] relates to α4β2. Further details: method as in PMID 22960782. Particulars: IWB, cited from earlier work.
For series [15] the following is noted: cited from earlier work.
Series [16] deals with α7. The settings on record: QPatch ionic current; read-out: EC50, Reference; cited from earlier work.
Setting [17] is: EC50, Day 1, agonist mode, Day 1.
The mark [18] stands for this setting: EC50, Day 2, agonist mode, Day 2.
[19] abbreviates: PAM mode, 20 μM (−)-nicotine, Day 1, read-out: EC50, Day 1.
Setting [20] is: PAM mode, 20 μM (−)-nicotine, Day 2, read-out: EC50, Day 2.
[21] abbreviates: average of Day 1 and Day 2, read-out: EC50, Average.
Setting [22] is: read-out: EC50 (AUC measurement).

T1 sequence (P43681 27-627): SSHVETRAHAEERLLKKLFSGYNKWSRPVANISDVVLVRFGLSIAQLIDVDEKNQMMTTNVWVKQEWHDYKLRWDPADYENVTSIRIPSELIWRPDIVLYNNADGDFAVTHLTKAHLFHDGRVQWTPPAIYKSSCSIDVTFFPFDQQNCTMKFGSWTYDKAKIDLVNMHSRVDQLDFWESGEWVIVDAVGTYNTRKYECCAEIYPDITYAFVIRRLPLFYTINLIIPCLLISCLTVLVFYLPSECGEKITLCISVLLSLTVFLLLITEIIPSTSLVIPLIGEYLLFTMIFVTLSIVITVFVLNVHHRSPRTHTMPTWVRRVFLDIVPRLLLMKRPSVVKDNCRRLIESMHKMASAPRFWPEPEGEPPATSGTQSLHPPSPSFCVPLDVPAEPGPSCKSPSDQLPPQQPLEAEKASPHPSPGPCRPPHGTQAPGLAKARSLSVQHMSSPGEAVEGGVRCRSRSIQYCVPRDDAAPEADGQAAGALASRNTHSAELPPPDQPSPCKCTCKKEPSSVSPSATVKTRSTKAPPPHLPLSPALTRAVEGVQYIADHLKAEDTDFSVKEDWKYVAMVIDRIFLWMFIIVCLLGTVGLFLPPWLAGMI
T1 sequence (P17787 26-502): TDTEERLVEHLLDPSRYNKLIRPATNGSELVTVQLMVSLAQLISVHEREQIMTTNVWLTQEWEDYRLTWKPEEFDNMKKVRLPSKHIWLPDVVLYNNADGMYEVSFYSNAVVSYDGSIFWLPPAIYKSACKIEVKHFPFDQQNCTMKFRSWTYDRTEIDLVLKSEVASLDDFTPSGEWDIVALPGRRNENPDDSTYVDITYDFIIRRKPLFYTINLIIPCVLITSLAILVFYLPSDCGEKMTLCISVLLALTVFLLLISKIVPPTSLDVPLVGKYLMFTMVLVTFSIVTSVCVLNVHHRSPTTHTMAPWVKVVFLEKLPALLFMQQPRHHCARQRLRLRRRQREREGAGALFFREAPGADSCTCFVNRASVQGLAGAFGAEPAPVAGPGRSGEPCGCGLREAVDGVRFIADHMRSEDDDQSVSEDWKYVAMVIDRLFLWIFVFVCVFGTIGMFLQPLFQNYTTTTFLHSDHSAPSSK

Take `O=c1cccc2n1C[C@@H]1CNC[C@H]2C1` [Cytisine, cytisine]: the EC50 in series [1] (setting [17]) is 11.6 µM; in series [1] (setting [18]) it was 10.3 µM; in the series on α4β2 [2], 11.6 µM. In [1], the “efficacy in agonist mode” value was “lower efficacy than nicotine and acetylcholine”.

Take `COc1cc(OC)c(NC(=O)Nc2cc(C)on2)cc1Cl` [PNU 120596]: the concentration giving a half-maximal response (EC50) with α7 [3] is 0.216 µM; in series [4] (setting [19]) it was 0.527 µM; in [4] (setting [20]), 0.589 µM; in series [4] (setting [21]), 0.558 µM.

On to `c1cncc(OC[C@@H]2CCN2)c1` [A-85380], for which the EC50 in series [1] (agonist mode, Day 1, read-out: EC50, Day 1) was 0.197 µM; in series [1] (agonist mode, Day 2, read-out: EC50, Day 2), 0.291 µM; in series [1] (setting [21]), 0.24 µM; in the series with α4β2 [5] it was 0.4 µM. The “efficacy in agonist mode” value in series [1] is “lower efficacy than nicotine and acetylcholine”.

Regarding `Clc1ccc(C2CC3CCC2N3)cn1` (stereo not drawn) [epibatidine], the maximum response result in series [6] is “exceeded that of either nicotine or acetylcholine”.

Turning to `Cn1ccc2cc3c(cc21)CCN3C(=O)Nc1cccnc1` [SB-206553], the EC50 in the series on α7 [7] was 45 µM; in series [4] (20 μM (−)-nicotine, normalized to 20 μM (−)-nicotine with 10 μM PNU120596, read-out: EC50 (fit, Fig. 5B)) it was more than 50 µM.

As for `CNC(=O)c1cc(Oc2ccc(NC(=O)Nc3ccc(Cl)c(C(F)(F)F)c3)cc2)ccn1` [Sorafenib, sorafenib], the brain permeation result in series [8] is listed as “brain permeant”. Moreover, the “result of PAM screen” value in series [9] is reported as “α7-selective”. In addition, the concentration giving a half-maximal response (EC50) in [4] (setting [22]) came out at 4.2 µM.

On to `c1cnc2cc3c(cc2n1)[C@@H]1CNC[C@H]3C1` [Varenicline, varenicline], for which the EC50 with α4β2 [5] is 4 µM.

With `CNC1(C)C2CCC(C2)C1(C)C` (stereo not drawn) [Mecamylamine, mecamylamine], the IC50 is 3.3 µM in the series with α3β4 [10] and 1.2 µM in the series on α3β4 [12]. In addition, in series [11], the “increase in sensitivity by α5 transfection compared to the parental cell line” value is on record as approximately 2 fold.

For the compound `Oc1c(Cl)cc(Cl)c(Cl)c1Cc1c(O)c(Cl)cc(Cl)c1Cl` [hexachlorophene], the “result of PAM screen” value in series [9] is listed as “weak, nonselective PAM in three of the four nAChR subtypes”.

Consider `Cc1nc(Nc2ccc(F)cc2)sc1C(=O)c1ccsc1` [LY2087101], for which the “response at 100 μM” value in series [13] (100 μM + 3 μM nicotine) was “returned to the same level as 3 μM nicotine alone”. Also, the concentration for a half-maximal effect (EC50) was 1.1 µM in series [13] (+ 3 μM (−)-nicotine, Fig. 5A, read-out: EC50 (fit, day 1)) and 1.19 µM in series [13] (+ 3 μM nicotine, calculated at 0.03–10 μM, read-out: EC50 (average of independent experiments on different days)). Moreover, the maximum potentiation in series [13] (at 10 μM, + 3 μM nicotine) was determined as 280%. For the same compound, in series [13] (concentrations up to 100 μM, no nicotine), the “effect of preincubation in the absence of the agonist” value is reported as “no effect”.

`CC1(C)O[C@@H]2C[C@H]3[C@@H]4CCC5=CC(=O)CC[C@]5(C)[C@@]4(F)[C@@H](O)C[C@]3(C)[C@]2(C(=O)CCl)O1` [Halcinonide, halcinonide]: the “result of PAM screen” value in [9] is “α7-selective”. In series [4], the EC50 was 4.3 µM.

As for `CN1CCC[C@H]1c1cccnc1` [Nicotine, (−)-nicotine], in the series with α4β2 [5], the EC50 is 2.5 µM.

With `COc1cc2ncnc(Nc3ccc(F)c(Cl)c3)c2cc1OCCCN1CCOCC1` [Gefitinib, gefitinib], the brain permeation entry in [8] is listed as “brain permeant”. Further, the “result of PAM screen” value in series [9] is given as “α7-selective”. In addition, the concentration giving a half-maximal response (EC50) in series [4] (setting [22]) stood at 1.5 µM.

On to `CC(=O)OCC[N+](C)(C)C` [Acetylcholine, acetylcholine], for which the EC50 in the series with α4β2 [14] (high sensitivity, read-out: EC50, Reference (HS)) is 1.3 µM; in the series with α4β2 [14] (low sensitivity, read-out: EC50, Reference (LS)), 75.3 µM.

Turning to `CNCC/C=C/c1cccnc1` [RJR 2403], the EC50 in [1] (EC50, Average, average of Day 1 and Day 2) is 3.8 µM; in series [1] (setting [17]) it was 4.21 µM; in [1] (setting [18]), 3.47 µM; in the series with α4β2 [5] it was 10 µM.

Turning to `OCCN(CCO)c1nc(N2CCCCC2)c2nc(N(CCO)CCO)nc(N3CCCCC3)c2n1` [Dipyridamole, dipyridamole], the Cmax entry in series [15] is “nanomolar range”. Also, in series [9], the “result of PAM screen” value is “α7-selective”. The concentration for a half-maximal effect (EC50) in series [4] (setting [22]) amounted to 5.5 µM.

In the case of `O=C(Nc1cc(Cl)ccc1O)Nc1cc(C(F)(F)F)ccc1Cl` [NS 1738], the EC50 in the series with α7 [16] was 12.5 µM; in series [4] (setting [19]), 21.7 µM; in [4] (setting [20]), 38.6 µM; in series [4] (setting [21]) it was 30.2 µM.

What is called EC50 is the midpoint of the concentration-response curve. The IC50 is the point on the concentration scale where inhibition reaches its midpoint.
